Values belong to the compound of their own block, whether it stands above or below them.
Experiments:
[1] = target: T1, Endothelin-converting enzyme 1 (Homo sapiens, UniProt P42892); assay: Inhibitory concentration against human ECE-1 by RIA
T1 sequence (P42892 whole entry): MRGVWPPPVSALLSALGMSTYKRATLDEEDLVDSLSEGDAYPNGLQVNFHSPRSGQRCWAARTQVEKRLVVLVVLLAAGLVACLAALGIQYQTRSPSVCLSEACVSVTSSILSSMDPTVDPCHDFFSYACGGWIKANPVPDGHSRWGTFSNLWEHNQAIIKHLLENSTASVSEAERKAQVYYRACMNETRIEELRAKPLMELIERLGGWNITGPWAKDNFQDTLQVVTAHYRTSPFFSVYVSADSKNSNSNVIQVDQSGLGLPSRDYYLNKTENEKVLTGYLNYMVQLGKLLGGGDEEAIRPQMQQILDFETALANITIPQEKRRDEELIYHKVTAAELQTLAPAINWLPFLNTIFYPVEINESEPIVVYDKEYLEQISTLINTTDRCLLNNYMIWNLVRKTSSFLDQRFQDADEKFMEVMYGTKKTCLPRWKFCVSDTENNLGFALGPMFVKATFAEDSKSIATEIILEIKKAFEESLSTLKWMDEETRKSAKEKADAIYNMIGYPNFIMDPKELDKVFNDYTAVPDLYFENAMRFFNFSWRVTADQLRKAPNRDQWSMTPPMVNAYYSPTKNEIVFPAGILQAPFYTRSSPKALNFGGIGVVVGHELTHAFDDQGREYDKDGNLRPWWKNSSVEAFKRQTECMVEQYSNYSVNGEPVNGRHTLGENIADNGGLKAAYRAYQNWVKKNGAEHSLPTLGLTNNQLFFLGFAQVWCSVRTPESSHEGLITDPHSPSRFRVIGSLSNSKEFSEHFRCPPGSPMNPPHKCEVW

[2] = target: T1, Endothelin-converting enzyme 1; assay: Inhibitory concentration against human ECE-1 expressed in MDCK cells; assay type: cell-based
Neprilysin = Neprilysin (Homo sapiens, UniProt P08473); assay: Inhibitory concentration against Neprilysin
Chain of Neprilysin (P08473 whole entry): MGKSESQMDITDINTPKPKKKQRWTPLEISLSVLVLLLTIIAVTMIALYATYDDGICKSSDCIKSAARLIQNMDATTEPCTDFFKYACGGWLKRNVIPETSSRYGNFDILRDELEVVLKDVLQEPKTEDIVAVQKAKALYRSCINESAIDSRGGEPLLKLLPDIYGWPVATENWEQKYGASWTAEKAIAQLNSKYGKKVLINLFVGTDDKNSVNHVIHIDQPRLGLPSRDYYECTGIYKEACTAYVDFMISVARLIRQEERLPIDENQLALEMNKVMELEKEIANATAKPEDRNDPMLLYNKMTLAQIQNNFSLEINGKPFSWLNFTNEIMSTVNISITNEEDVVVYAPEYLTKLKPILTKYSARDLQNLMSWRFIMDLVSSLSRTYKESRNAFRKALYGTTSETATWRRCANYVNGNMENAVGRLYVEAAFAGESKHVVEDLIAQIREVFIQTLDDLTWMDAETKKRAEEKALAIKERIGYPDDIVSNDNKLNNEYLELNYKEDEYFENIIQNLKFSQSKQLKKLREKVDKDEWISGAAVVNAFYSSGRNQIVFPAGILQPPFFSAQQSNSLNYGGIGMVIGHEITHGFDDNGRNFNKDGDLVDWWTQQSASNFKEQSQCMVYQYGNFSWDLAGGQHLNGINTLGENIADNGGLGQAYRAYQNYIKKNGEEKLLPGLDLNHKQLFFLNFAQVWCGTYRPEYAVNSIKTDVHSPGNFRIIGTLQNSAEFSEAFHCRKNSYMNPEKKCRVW

[3] = target: Angiotensin-converting enzyme (Homo sapiens, UniProt P12821); assay: Inhibitory concentration against human angiotensin I converting enzyme
Chain of Angiotensin-converting enzyme (P12821 whole entry): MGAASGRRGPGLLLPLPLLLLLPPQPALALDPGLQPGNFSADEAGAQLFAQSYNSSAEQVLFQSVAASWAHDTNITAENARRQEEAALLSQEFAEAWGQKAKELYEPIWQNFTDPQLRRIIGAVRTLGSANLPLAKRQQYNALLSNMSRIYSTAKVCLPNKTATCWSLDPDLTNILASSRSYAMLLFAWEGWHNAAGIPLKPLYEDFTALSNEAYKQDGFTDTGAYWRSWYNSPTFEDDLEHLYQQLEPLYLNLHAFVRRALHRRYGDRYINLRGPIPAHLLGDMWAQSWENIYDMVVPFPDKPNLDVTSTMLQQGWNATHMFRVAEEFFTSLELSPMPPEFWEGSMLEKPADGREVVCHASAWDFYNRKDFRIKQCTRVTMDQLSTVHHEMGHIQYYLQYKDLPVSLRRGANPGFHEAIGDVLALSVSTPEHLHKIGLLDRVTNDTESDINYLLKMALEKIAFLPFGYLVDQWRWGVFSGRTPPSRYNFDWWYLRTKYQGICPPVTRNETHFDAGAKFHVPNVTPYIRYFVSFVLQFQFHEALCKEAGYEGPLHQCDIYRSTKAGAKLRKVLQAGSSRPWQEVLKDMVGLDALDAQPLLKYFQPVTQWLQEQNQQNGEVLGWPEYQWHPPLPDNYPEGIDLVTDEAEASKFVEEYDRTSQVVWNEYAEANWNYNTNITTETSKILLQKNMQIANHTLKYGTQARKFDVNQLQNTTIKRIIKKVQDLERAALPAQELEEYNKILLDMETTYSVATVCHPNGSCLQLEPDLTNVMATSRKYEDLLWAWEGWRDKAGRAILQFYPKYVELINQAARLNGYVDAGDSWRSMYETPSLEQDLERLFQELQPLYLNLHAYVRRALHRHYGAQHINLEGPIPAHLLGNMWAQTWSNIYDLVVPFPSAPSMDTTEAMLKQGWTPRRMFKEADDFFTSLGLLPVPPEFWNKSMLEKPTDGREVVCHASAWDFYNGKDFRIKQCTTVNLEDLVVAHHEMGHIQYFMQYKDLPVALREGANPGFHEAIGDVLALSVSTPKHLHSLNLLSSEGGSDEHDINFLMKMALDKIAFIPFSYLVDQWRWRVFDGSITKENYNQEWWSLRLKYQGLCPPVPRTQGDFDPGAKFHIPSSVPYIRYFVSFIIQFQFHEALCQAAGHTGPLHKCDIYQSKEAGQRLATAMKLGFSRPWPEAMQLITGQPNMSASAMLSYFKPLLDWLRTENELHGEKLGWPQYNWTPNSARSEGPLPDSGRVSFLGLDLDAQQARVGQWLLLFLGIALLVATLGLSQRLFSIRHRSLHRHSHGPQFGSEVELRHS

cells [4] = settings: Homo sapiens, Glioblastoma
Description: (§1) Inhibitory concentration against DNA synthesis in LNZ308 glioblastoma cells

cells [5] = settings: Homo sapiens, Glioblastoma; remark: listed apart in the source
Description: Inhibitory concentration against DNA synthesis in LN18 glioblastoma cells

cells [6] = settings: Homo sapiens, Glioblastoma; remark: listed apart in the source
Description: as §1

cells [7] = settings: Homo sapiens, Glioblastoma; remark: listed apart in the source
Description: Inhibitory concentration againstDNA synthesis in LN18 glioblastoma cells

[8] = Inhibitory concentration of the compound was determined against DNA synthesis in LN18 glioblastoma cells; assay type: functional, cell-based; settings: Homo sapiens

SMILES: CC(=O)S[C@@H]1C[C@@H](COCc2cc(F)c(F)cc2F)N(C(=O)Oc2cccc3c2OCCO3)C1
IC50 [1]: 0.0069 µM
IC50 [2]: 0.0765 µM
IC50 (Neprilysin): > 100 µM
IC50 [3]: > 100 µM
IC50 (cells [6]): 16 µM
IC50 (cells [7]): 14 µM

SMILES: CC(C)OC(=O)N1C[C@H](S)C[C@H]1CNCc1cc(F)ccc1F
IC50 [1]: 0.016 µM
IC50 [2]: 1.09 µM
IC50 (Neprilysin): > 100 µM
IC50 [3]: > 100 µM
IC50 (cells [4]): 50 µM
IC50 (cells [5]): 27 µM

SMILES: CCCc1cnc(N2C[C@H](S)C[C@H]2CNCc2cc(F)ccc2F)nc1
IC50 [1]: 0.0104 µM
IC50 [2]: 0.0729 µM
IC50 (Neprilysin): > 100 µM
IC50 [3]: 31.5 µM
IC50 [8]: 19 µM
IC50 (cells [6]): 40 µM

SMILES: O=P(O)(O)C(Cc1ccc2ccccc2c1)N[C@@H](Cc1ccc(-c2ccccc2)cc1)c1nnn[nH]1 (some centres undefined) [CGS-314447]
IC50 [1]: 0.02 µM

Continued by falling IC50 [1], values first:

IC50 [1]: 0.0808 µM
IC50 [2]: 10.9 µM
IC50 (Neprilysin): 81.9 µM
IC50 [3]: 36.6 µM
IC50 (cells [4]): 16 µM
IC50 (cells [5]): 12 µM
SMILES: COC(=O)c1ccccc1NC(=O)CN(C)C(=O)C1C[C@@H](S)CN1S(=O)(=O)c1ccc2ccccc2c1 (some centres undefined)

IC50 [1]: 0.0613 µM
IC50 [2]: 2.53 µM
IC50 (Neprilysin): 39.2 µM
IC50 [3]: 14.6 µM
SMILES: Cc1ccc(S(=O)(=O)NN(C)C(=O)C2C[C@@H](S)CN2S(=O)(=O)c2ccc3ccccc3c2)cc1 (some centres undefined)

IC50 [1]: 0.0497 µM
IC50 [2]: 0.48 µM
IC50 (Neprilysin): > 100 µM
IC50 [3]: > 100 µM
IC50 (cells [4]): 20 µM
IC50 (cells [5]): 18 µM
SMILES: O=C(S[C@@H]1C[C@@H](COCc2cc(F)c(F)cc2F)N(C(=O)Oc2cccc3c2OCCO3)C1)c1ccccc1

IC50 [1]: 0.0012 µM
IC50 [2]: 0.067 µM
IC50 (Neprilysin): > 100 µM
IC50 [3]: 13.4 µM
SMILES: COC(=O)c1ccccc1OC(=O)N1CC(S)CC1COCc1cc(F)c(F)cc1F (centres undefined)

From ChEMBL document CHEMBL1144347, “Endothelin-converting enzyme-1 inhibition and growth of human glioblastoma cells” (J Med Chem, 2005)
